From patent publication US20090030013A1, “SUBSTITUTED TETRAHYDRO-QUINOLINE-SULFONAMIDE COMPOUNDS, THEIR PREPARATION AND USE AS MEDICAMENTS” (LABORATORIES DEL DR. ESTEVE, S.A., priority 2007, published 2009)
Counter-ions that a name gives are not always drawn.

Molecular target: T1, 5HT6-human recombinant receptor (Homo sapiens, UniProt P50406)
T1 construct: purchased Receptor Biology; host or cells: HEK-293 cell membranes
Experiment: Binding to serotonin receptor 5-HT6 ([3H]-LSD radioligand displacement)
Details: [3H]-LSD 2.7 nM, HEK-293 cell membranes
Procedure: I) Binding to Serotonin Receptor 5-HT6
Cell membranes of HEK-293 cells expressing the 5HT6-human recombinant receptor were supplied by Receptor Biology. In said membranes the receptor concentration is 2.18 pmol/mg protein and the protein concentration is 9.17 mg/ml. The experimental protocol follows the method of B. L. Roth et al. [B. L. Roth, S. C. Craigo, M. S. Choudhary, A. Uluer, F. J. Monsma, Y. Shen, H. Y. Meltzer, D. R. Sibley: Binding of Typical and Atypical Antipsychotic Agents to 5-Hydroxytryptamine-6 and Hydroxytryptamine-7 Receptors. The Journal of Pharmacology and Experimental Therapeutics, 1994, 268, 1403] with the following slight changes. The respective part of the literature description is hereby incorporated by reference and forms part of the disclosure.
The commercial membrane is diluted (1:40 dilution) with the binding buffer: 50 mM Tris-HCl, 10 mM MgCl2, 0.5 mM EDTA (pH 7.4). The radioligand used is [^3H]-LSD at a concentration of 2.7 nM with a final volume of 200 μl. […] Non-specific binding is determined in the presence of 100 μM of serotonin. […] The inhibition constants (Ki, nM) were calculated by non-linear regression analysis using the program EBDA/LIGAND [Munson and Rodbard, Analytical Biochemistry, 1980, 107, 220]., the respective part of which is hereby incorporated by reference and forms part of the disclosure.

T1 sequence (P50406 whole entry): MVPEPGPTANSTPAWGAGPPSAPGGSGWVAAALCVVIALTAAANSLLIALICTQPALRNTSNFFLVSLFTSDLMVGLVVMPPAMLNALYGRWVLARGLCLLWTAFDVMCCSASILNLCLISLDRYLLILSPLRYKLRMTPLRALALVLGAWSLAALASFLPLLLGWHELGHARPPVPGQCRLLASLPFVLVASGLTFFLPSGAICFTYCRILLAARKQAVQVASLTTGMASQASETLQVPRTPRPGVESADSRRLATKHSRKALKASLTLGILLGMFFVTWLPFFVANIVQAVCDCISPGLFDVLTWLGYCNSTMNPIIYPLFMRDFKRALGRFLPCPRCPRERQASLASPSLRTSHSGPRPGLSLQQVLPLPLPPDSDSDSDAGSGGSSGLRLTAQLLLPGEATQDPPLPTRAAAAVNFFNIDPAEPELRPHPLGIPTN

Ki (tests in triplicate): 0.0314 ± 0.0008 µM | inhibition at 0.1 µM (compound at 10^−7 M): 85.8%
SMILES: CC1CCc2c(N3CCNCC3)cccc2N1S(=O)(=O)c1cccc2ccccc12 (stereo not drawn) [Compound 3, 1,2,3,4-tetrahydro-2-methyl-5-(piperazin-1-yl)-1-α-naphthylsulfonyl)quinoline trifluoroacetate]
